According to doi:10.1101/2021.06.15.448612v1 (biorxiv, 2021):

Molecular target: MsbA (Escherichia coli, UniProt P60752)
Assay: isothermal titration calorimetry
Format: binding

Chain of MsbA (P60752 2-582): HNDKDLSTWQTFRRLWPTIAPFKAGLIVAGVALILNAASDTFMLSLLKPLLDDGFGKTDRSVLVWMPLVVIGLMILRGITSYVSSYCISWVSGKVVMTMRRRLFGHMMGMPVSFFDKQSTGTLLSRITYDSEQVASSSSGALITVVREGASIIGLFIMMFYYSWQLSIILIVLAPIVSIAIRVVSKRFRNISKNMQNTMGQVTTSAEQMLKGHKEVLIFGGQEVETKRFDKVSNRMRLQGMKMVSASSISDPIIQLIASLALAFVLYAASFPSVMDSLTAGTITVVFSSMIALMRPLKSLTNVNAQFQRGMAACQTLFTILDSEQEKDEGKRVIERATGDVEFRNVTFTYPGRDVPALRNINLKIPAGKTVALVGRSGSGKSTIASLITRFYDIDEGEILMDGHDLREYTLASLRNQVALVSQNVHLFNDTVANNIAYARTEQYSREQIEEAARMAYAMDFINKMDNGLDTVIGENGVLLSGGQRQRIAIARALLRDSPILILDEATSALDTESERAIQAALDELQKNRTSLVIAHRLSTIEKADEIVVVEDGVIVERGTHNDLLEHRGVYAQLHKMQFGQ

Kd: 5.1 µM
Structure (SMILES): Nc1ncnc2c1ncn2[C@@H]1O[C@H](COP(=O)(O)OP(=O)(O)NP(=O)(O)O)[C@@H](O)[C@H]1O [AMP-PNP]
